≈ marks a conversion by molar mass, not a printed value.
Assays:
[1] = Stability of the compound assessed as parent compound remaining in buffer at pH 7.4 measured after 4 days by 1H-NMR analysis; format: physicochemical; conditions: read-out: Stability
Estrogen receptor [2] = target: T1, Estrogen receptor (Homo sapiens, UniProt P03372)
T1 sequence (P03372 whole entry): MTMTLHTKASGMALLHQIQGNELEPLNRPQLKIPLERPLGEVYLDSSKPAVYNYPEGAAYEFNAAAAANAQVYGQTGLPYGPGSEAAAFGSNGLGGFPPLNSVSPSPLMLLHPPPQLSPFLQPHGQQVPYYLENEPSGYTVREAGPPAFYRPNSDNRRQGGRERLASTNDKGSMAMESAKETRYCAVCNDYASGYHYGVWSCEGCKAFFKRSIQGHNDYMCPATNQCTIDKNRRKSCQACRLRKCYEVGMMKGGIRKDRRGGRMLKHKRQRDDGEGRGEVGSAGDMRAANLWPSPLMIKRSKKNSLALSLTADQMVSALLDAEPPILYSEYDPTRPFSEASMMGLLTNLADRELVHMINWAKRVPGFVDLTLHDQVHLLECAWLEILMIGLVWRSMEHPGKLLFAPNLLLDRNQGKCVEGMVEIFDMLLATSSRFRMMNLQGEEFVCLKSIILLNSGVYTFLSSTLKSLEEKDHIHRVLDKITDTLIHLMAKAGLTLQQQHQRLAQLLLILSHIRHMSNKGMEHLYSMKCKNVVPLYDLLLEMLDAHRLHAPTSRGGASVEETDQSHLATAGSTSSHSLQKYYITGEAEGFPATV
Description: Induction of ERalpha degradation in human MCF7 cells assessed as downregulation of ER alpha receptor expression measured after 18 to 22 hrs by immunofluorescence assay

[3] = human, plasma
Description: Fraction unbound in human plasma by equilibrium dialysis method

physchem = conditions: buffer, pH 7.4
in vitro [4] = conditions: rat, hepatocytes
in vitro [5] = conditions: human, hepatocytes
Estrogen receptor [6] = target: T1, Estrogen receptor; assay: biochemical
Description: Displacement of fluorescent labelled fluormone ES2 from human recombinant GST tagged ER alpha LBD ( 282 to 595 residues) expressed in baculovirus infected insect cells measured after 20 mins by TR-FRET Lanthascreen assay

[7] = Stability of the compound assessed as parent compound remaining in buffer at pH 7.4 measured after 3 days by 1H-NMR analysis; format: physicochemical; conditions: read-out: Stability
[8] = Half-life in rat at 0.5 mg/kg, iv; format: ADME, organism-based; conditions: in vivo
[9] = Volume of distribution at steady state in rat at 0.5 mg/kg, iv or 1 mg/kg, po; format: ADME, organism-based; conditions: in vivo, read-out: Vdss
[10] = Plasma clearance in rat at 0.5 mg/kg, iv or 1 mg/kg, po; format: ADME, organism-based
[11] = Half-life in rat at 1 mg/kg, po; format: ADME, organism-based; conditions: in vivo
[12] = Acid dissociation constant, pKa of the compound in potassium chloride at 20 degC by UV absorption analysis; format: physicochemical
[13] = Base dissociation constant, pKa of the compound in potassium chloride at 20 degC by UV absorption analysis; format: physicochemical
[14] = Aqueous solubility of the compound in phosphate buffer at pH 7.4 at 25 degC after 24 hrs; format: physicochemical
Cytochrome P450 3A4 = Cytochrome P450 3A4 (Homo sapiens, UniProt P08684); assay: Inhibition of CYP3A4 (unknown origin); format: ADME
Cytochrome P450 2D6 = Cytochrome P450 2D6 (Homo sapiens, UniProt P10635); assay: Inhibition of CYP2D6 (unknown origin); format: ADME
Cytochrome P450 2C9 = Cytochrome P450 2C9 (Homo sapiens, UniProt P11712); assay: Inhibition of CYP2C9 (unknown origin); format: ADME
Cytochrome P450 2C19 = Cytochrome P450 2C19 (Homo sapiens, UniProt P33261); assay: Inhibition of CYP2C19 (unknown origin); format: ADME
Cytochrome P450 1A2 = target: T2, Cytochrome P450 1A2 (Homo sapiens, UniProt P05177); assay: Inhibition of CYP1A2 (unknown origin); format: ADME
T2 sequence (P05177 whole entry): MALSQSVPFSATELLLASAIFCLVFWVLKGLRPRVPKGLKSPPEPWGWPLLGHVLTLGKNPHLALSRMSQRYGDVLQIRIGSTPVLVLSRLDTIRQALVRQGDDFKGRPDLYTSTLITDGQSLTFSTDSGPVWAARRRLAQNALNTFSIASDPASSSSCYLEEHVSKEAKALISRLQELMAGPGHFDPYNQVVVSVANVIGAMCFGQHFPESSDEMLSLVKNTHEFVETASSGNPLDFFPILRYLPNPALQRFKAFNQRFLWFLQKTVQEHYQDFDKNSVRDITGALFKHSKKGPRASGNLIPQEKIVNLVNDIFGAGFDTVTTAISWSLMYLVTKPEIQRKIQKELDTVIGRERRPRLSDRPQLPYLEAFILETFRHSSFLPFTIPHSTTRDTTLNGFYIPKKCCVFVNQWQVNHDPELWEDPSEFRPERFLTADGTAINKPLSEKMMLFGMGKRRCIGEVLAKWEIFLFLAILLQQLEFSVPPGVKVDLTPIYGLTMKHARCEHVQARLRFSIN

[15] = AUC in rat at 1 mg/kg, po; format: ADME, organism-based; conditions: in vivo
[16] = Oral bioavailability in rat at 1 mg/kg; format: ADME, organism-based; conditions: in vivo
[17] = Stability of the compound assessed as parent compound remaining in buffer at pH 7.4 measured after 8 days by 1H-NMR analysis; format: physicochemical; conditions: read-out: Stability

Sequence of Cytochrome P450 2D6 (P10635 whole entry): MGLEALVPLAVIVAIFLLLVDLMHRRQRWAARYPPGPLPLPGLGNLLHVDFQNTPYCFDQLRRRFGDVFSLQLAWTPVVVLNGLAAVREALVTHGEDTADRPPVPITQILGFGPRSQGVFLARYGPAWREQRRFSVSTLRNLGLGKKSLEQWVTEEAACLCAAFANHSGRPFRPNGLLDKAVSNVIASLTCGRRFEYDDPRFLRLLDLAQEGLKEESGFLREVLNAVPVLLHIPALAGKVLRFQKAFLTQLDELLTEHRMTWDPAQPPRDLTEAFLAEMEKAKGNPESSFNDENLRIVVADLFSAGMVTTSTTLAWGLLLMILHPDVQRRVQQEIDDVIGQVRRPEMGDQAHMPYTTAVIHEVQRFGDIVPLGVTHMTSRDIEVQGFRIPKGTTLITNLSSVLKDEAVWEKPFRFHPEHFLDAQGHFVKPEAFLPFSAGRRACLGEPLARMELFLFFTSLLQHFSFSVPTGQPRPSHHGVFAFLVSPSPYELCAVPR
Sequence of Cytochrome P450 3A4 (P08684 whole entry): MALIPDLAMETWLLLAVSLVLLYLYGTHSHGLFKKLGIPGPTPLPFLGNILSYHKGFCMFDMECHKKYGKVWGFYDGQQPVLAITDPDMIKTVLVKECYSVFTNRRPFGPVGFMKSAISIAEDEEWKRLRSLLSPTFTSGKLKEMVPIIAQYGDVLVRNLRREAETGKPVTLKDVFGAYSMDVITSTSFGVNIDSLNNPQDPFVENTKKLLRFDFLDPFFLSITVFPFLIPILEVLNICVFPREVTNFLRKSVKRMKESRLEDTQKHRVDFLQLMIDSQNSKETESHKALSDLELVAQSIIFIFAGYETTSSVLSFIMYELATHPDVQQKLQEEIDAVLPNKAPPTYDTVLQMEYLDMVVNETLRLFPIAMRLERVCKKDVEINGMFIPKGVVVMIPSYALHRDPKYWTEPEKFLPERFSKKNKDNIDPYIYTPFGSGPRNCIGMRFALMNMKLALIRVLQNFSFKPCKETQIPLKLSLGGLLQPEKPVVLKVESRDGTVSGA
Sequence of Cytochrome P450 2C9 (P11712 whole entry): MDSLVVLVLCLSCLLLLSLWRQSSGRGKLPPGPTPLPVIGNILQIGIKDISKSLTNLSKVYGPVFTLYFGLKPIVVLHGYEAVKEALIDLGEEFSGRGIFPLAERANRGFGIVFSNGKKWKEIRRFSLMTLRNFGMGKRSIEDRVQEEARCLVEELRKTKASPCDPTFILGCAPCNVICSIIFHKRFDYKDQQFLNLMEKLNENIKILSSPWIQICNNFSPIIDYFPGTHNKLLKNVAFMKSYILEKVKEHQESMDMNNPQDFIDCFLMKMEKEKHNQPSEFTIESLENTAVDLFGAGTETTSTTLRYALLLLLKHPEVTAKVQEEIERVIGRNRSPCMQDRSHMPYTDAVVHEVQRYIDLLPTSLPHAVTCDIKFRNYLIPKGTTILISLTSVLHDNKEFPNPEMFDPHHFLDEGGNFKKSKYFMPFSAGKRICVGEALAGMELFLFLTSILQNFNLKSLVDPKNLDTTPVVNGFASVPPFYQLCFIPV
Sequence of Cytochrome P450 2C19 (P33261 whole entry): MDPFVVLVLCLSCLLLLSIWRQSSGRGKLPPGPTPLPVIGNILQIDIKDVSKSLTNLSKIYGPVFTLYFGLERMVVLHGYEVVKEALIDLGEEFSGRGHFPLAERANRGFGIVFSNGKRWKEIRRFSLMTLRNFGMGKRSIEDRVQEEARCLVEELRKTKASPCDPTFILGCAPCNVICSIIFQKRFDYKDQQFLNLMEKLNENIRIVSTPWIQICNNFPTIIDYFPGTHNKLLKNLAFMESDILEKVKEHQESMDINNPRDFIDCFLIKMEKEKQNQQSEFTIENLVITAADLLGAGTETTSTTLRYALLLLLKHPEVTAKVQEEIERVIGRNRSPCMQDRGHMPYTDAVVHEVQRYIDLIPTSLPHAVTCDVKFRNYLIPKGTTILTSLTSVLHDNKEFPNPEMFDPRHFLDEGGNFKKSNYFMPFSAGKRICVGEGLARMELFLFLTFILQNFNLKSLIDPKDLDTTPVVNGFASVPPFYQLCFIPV

SMILES | IC50 (Estrogen receptor [2]) | Fu [3] | logD (physchem) | hepatocyte CLint (in vitro [4]) | hepatocyte CLint (in vitro [5]) | IC50 (Estrogen receptor [6]) | remaining at 192 h [17] | other results
C[C@@H]1Cc2c([nH]c3ccccc23)[C@@](C)(c2c(F)cc(/C=C/C(=O)O)cc2F)N1CC(C)(C)F | 1.26 nM | 0.28% | 2.7 | 9 µL/min/1e6 cells | 13 µL/min/1e6 cells | 0.398 nM |  | remaining at 96 h [1]: 58%
C[C@@H]1Cc2c([nH]c3ccccc23)[C@@H](c2c(F)cc(/C=C/C(=O)O)cc2F)N1CC(C)(C)F [AZD-9496] |  | 0.26% |  | 5 µL/min/1e6 cells | 31 µL/min/1e6 cells |  |  | remaining at 72 h [7]: 92%
CC(C)(F)CN1[C@@H]2CCC[C@@]1(c1c(F)cc(/C=C/C(=O)O)cc1F)c1[nH]c3ccccc3c1C2 | 15.8 nM | 0.45% | 2.9 | 26 µL/min/1e6 cells | 8 µL/min/1e6 cells | 0.794 nM |  | half-life [8]: 2.8 h; Vd [9]: 1.6 L/kg; clearance [10]: 10 mL/min/kg; half-life [11]: 3.1 h; remaining at 72 h [7]: 100%; pKa [12]: 3.8; pKa [13]: 5.7; solubility at 24 h [14]: 734 µM (≈ 344 µg/mL); IC50 (Cytochrome P450 3A4): > 30000 nM; IC50 (Cytochrome P450 2D6): > 30000 nM; IC50 (Cytochrome P450 2C9): > 30000 nM; IC50 (Cytochrome P450 2C19): > 30000 nM; IC50 (Cytochrome P450 1A2): > 30000 nM; AUC [15]: 2.7 µM·h; bioavailability [16]: 100%
C[C@@H]1Cc2c([nH]c3ccccc23)[C@@H](c2c(F)cc(OCCN3CC(CF)C3)cc2F)N1CC(C)(C)F |  |  | > 4.4 |  | < 1 µL/min/1e6 cells |  | 100% | 
CC(C)(F)CN1[C@@H]2CCC[C@@]1(c1c(F)cc(OCCN3CC(CF)C3)cc1F)c1[nH]c3ccccc3c1C2 | 2 nM | 0.17% | 5.3 | 17 µL/min/1e6 cells | 4 µL/min/1e6 cells | 2 nM | 100% | 
C[C@@H]1Cc2c([nH]c3ccccc23)[C@@](C)(c2c(F)cc(OCCN3CC(CF)C3)cc2F)N1CC(C)(C)F | 0.251 nM | 0.05% | > 4.4 | 18 µL/min/1e6 cells |  | 1 nM | 75% | 
CC(C)(F)CN1[C@@H]2C=CC[C@@]1(c1c(F)cc(/C=C/C(=O)O)cc1F)c1[nH]c3ccccc3c1C2 | 1.58 nM | 0.3% | 2.8 | 8 µL/min/1e6 cells | 14 µL/min/1e6 cells | 0.631 nM | 100% | 
